In US20110135574A1, “METHODS OF TREATING KIDNEY DISEASE” (priority 2009, published 2011):
Entries after “also recorded” stand apart in the source; their conditions may differ.

What was measured:
AT1R podocytes [1] = assay: Whole-cell patch-clamp recording of AngII-evoked TRPC-like current; format: cell-based, rat; conditions: AngII 500 nM
Protocol: (§1) Electrophysiology. Patch-clamp electrophysiology (Axopatch 200B amplifier, Axon Instruments, CA) was performed in the whole-cell configuration. Briefly, fully differentiated podocytes were plated on glass coverslips at low density and placed in the recording chamber. The patch pipettes with resistances of 3-4 MΩ were pulled from borosilicate glass with a P-97 puller (Sutter Instrument) and filled with a solution containing (in mM): 135 CH3SO3Cs, 10 CsCl, 3 MgATP, 0.2 NaGTP, 0.2 EGTA, 0.13 CaCl2, and 10 HEPES, pH 7.3 with CsOH. The bath solution contained (in mM): 135 CH3SO3Na, 5 CsCl, 2 CaCl2, 1 MgCl2, 10 HEPES, and 10 Glucose, pH 7.4 with NaOH. Angiotensin (500 nM) was applied to the bath solution. Whole-cell currents were recorded from −100 mV to 100 mV voltage ramps over 150 ms and a holding potential of zero. For single channel recordings in the outside-out configuration, we utilized a voltage step protocol from −100 mV to +100 mV delivered at 20 mV intervals and a holding potential of −60 mV. Average pipette resistance filled with pipette solution was 5-10 MΩ. Data were sampled at 10 kHz and filtered at 5 kHz. […] Ensemble averages were expressed as open channel probabilities (average current divided by unitary current amplitude and # of channels in each patch) and plotted as histograms. All data were acquired at room temperature and analyzed using pClamp 10 (Axon Instruments, CA).

[2] = target: T1, TRPC5 and TRPC6 channels in AT1R podocytes (Rattus norvegicus, UniProt Q8VD38); assay: Outside-out single channel recordings of TRPC5-like and TRPC6-like conductances; format: cell-based; conditions: La3+ 100 μM; after AngII 500 nM; Vstep +100 mV
T1 construct: endogenous in cells; host or cells: immortalized rat podocytes stably expressing the AngII Type 1 Receptor (AT1R podocytes)
T1 sequence (Q8VD38 1-974): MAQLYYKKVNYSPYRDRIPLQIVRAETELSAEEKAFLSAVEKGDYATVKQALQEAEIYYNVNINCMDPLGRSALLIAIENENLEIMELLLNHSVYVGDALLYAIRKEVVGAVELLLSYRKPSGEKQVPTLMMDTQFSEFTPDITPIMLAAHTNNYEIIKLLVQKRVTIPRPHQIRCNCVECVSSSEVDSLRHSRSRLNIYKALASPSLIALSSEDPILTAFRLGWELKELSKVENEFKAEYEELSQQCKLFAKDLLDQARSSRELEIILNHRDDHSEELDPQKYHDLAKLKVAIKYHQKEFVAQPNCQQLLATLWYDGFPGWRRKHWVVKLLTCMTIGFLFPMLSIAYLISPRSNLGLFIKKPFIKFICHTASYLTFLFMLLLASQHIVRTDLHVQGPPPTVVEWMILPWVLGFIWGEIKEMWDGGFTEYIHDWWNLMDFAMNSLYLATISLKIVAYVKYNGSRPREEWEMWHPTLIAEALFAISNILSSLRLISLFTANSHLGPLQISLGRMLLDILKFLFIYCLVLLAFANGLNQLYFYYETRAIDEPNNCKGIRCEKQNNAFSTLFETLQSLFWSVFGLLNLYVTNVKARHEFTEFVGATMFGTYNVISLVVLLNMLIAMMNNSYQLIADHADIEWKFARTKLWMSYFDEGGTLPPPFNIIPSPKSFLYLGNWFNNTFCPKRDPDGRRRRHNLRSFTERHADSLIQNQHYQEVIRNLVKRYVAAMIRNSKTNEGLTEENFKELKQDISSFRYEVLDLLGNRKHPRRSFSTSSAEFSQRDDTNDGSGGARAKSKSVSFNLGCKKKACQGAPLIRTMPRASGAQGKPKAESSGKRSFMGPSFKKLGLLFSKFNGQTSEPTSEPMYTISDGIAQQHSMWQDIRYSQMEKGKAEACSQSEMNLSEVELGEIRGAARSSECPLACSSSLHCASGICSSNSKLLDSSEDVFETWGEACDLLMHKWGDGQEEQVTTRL
Protocol: as §1

[3] = target: T2, TRPC5 and TRPC6 channels in AT1R podocytes (Rattus norvegicus, UniProt Q99N78); assay: as above; format: cell-based; conditions: La3+ 100 μM; in words
T2 construct: endogenous in cells; host or cells: immortalized rat podocytes stably expressing the AngII Type 1 Receptor (AT1R podocytes)
T2 sequence (Q99N78 1-930): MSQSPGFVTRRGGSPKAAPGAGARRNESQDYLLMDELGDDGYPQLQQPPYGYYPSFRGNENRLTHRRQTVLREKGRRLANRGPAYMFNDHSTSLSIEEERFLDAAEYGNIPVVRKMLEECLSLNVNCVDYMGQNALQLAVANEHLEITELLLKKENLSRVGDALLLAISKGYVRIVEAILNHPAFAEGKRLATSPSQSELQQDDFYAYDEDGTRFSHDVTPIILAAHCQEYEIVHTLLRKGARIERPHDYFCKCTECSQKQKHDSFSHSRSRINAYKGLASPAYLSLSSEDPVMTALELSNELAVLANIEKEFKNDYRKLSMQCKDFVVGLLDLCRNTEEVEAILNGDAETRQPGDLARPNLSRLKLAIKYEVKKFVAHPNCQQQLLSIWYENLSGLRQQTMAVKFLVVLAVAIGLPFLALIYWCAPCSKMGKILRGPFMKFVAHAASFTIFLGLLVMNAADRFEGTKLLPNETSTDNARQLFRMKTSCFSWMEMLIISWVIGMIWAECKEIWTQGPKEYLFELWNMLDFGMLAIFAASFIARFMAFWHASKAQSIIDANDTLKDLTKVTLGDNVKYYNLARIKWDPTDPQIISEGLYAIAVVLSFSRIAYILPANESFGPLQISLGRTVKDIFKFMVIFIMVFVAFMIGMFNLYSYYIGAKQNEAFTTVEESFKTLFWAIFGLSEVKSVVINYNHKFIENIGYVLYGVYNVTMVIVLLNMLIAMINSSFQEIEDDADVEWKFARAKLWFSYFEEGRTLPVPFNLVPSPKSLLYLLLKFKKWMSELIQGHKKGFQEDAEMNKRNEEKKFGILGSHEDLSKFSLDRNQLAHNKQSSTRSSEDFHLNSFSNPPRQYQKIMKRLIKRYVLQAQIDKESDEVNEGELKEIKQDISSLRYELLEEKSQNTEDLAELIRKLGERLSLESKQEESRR
Protocol: as §1

AT1R podocytes [4] = assay: Stress fiber (phalloidin) and focal adhesion (paxillin) quantification after AngII, AT1R podocytes; format: cell-based, rat; conditions: in words
Protocol: (§2) Podocyte cell culture. Wild-type mouse podocytes (passages 7 to 18) derived from the Immortomouse stably expressing the temperature-sensitive SV40 T-antigen were generously provided by Peter Mundel (University of Miami School of Medicine, FL) and cultured as previously described (Asanuma et al., Nat Cell Biol 8, 485-491, 2006). Briefly, podocytes were plated on collagen-coated cell culture dishes (100 μg/ml Type I Collagen, Gibco Invitrogen) and maintained at 33° C. in a humidified atmosphere of 5% CO2 in RPMI1640 medium supplemented with 10% heat-inactivated FBS, 100 U/ml Penicillin, 100 μg/ml streptomycin, and 100 U/ml Interferon-γ (IFN-γ). Under these permissive culture conditions, the podocytes remain in the undifferentiated, replication-competent state. Podocytes were thermoshifted to 38° C. and maintained in IFN-γ-free culture medium to induce growth arrest and differentiation. Podocyte-specific markers for differentiation are expressed within 7 days of culture in these non-permissive conditions. […]
(§3) Immunocytochemistry, wound healing assays, and confocal imaging. […] For double immunostaining, podocytes were incubated with antibodies to Paxillin (Chemicon International) and detected with Alexa-488-conjugated secondary antibodies (Molecular Probes). […]

podocytes = assay: Stress fiber quantification in podocytes, TRPC/Rho GTPase coupling (FIG. 4E); format: cell-based
Protocol: Lentivirus construction and shRNA-mediated gene silencing. Podocytes were exposed to lentivirus encoding validated shRNA sequences (Open Biosystems) for 24 hours in cell culture medium supplemented with 4 μg/ml polybrene (Chemicon International). For all experiments, parallel infections with the enhanced GFP virus in the VVPW vector, scrambled shRNA, or polybrene alone were used as control. All experiments were performed at least 48 hours post-infection of podocytes that were thermoshifted 5-7 days prior to the assay. Lentiviral particles pseudotyped with the vesicular stomatitis virus glycoprotein (VSV-G) were constructed according to the manufacturer's protocol. Briefly, low-passage HEK293T cells were transfected with the pLKO.1 plasmid encoding the shRNA, the packaging plasmid pMDG.2 ΔR8.91, and the envelope plasmid pCMV-VSV-G at a ratio of 10:10:1 using the Minis Trans-IT LT-1 transfection reagent. Enhanced GFP encoded in the pLVX vector was used to assess transfection efficiency. The medium was replaced with the virus harvest media 18 hours post-transfection, and viral particles were collected twice at 24 hour intervals thereafter. […]
as §3

AT1R podocytes [5] = assay: Fluo-3 calcium imaging of AngII-evoked Ca2+ transients; format: cell-based, rat; conditions: Losartan 200 nM; AngII 500 nM
Protocol: as §2
Calcium imaging. […] Fluorescence intensity was normalized to maximal fluorescence obtained at the end of each experiment by the application of 100 μM Ionomycin, based on the formula F=(Fmax (angiotensin)−Fmin)/(Fmax (ionomycin)−Fmin). Measurements were analyzed using Zeiss Pascal Software and Microsoft Xcel, and images were prepared in Adobe Photoshop and NIH Image J.

For “Angiotensin II (DRVYIHPF; Angiotensin-2; UniProt P01019 25-32, looked up) [AngII]”, the normalized peak current (AT1R podocytes [1]; at +100 mV) was 20±7 pA/pF and the normalized peak current (AT1R podocytes [1]; at -100 mV) was 10±4 pA/pF.

In the case of `[La+3]` [La^3+, Lanthanum], the “single channel conductance [4] unmasked” value [2] is reported as 33 pS and the “effect on AngII-evoked single channel conductances [2] and [3] / single channel activity” value [3] is reported as “abolished; also recorded: suppressed”.

With `CCCCc1nc(Cl)c(CO)n1Cc1ccc(-c2ccccc2-c2nn[nH]n2)cc1` [Losartan] the stress fiber formation (AT1R podocytes [4]; Losartan 200 nM prior to AngII exposure) was “induced robust stress fiber formation”, the “focal adhesions (Paxillin immunostaining)” value (AT1R podocytes [4]; Losartan-treated vs AngII-treated controls) was “increase in focal adhesions” and the stress fibers (podocytes; cells pre-treated with Losartan, Scr shRNA controls 16±1) was 25±1. For the same molecule, the “decrease of the amplitude of the AngII-evoked Ca2+ transient” value (AT1R podocytes [5]) was “more than 70%”.

In the case of `C[C@@H](N)[C@H]1CC[C@H](C(=O)Nc2ccncc2)CC1` [Y27632], the stress fibers (podocytes; Y27632 10 μM in TRPC5 depleted cells (22±3 without)) is reported as 6±1.
